Tests used:
Proteus vulgaris GN76 = test: Minimum inhibitory concentration (MIC) in vitro, antibacterial spectrum; format: cell-based
Proteus rettgeri GN624 = test: as above; format: cell-based
Proteus mirabilis GN79 = test: as above; format: cell-based
[1] = tested on: Escherichia coli NIHJ JC-2; test: as above; format: cell-based
[2] = tested on: Streptococcus faecalis W-74; test: as above; format: cell-based
[3] = tested on: Salmonella typhimurium LT-2; test: as above; format: cell-based
[4] = tested on: Staphylococcus aureus 209 P JC-1; test: as above; format: cell-based
[5] = tested on: Streptococcus faecalis W-75; test: as above; format: cell-based
[6] = tested on: Streptococcus faecalis W-73; test: as above; format: cell-based
Escherichia coli GN206 = test: as above; format: cell-based
[7] = tested on: Pseudomonas aeruginosa MB3833; test: as above; format: cell-based
[8] = tested on: Pseudomonas aeruginosa E-2; test: as above; format: cell-based
[9] = tested on: Staphylococcus aureus Smith; test: as above; format: cell-based
[10] = tested on: Pseudomonas aeruginosa MB3829; test: as above; format: cell-based
[11] = tested on: Serratia marcescens No. 2; test: as above; format: cell-based
[12] = tested on: Streptococcus faecalis ATCC8043; test: as above; format: cell-based
Streptococcus faecalis = test: Antibacterial activity in vitro, summary in words; format: cell-based; details: statement in words on Table 1
[13] = Concentration in serum after subcutaneous administration to mice, bioassay with Escherichia coli; format: in vivo; details: mouse, sc, 25 mg/kg subcutaneously
Description: For the serum which was separated from the blood samples, the concentration in the serum of the compound administered was bioassayed using Escherichia coli as assay microorganism.

Pseudomonas aeruginosa = test: Antibacterial activity in vitro, summary in words; format: cell-based; details: statement in words on Table 1
Description: Besides, the compounds of Examples 1, 2, 4, 5 and 7 advantageously are also effective against Pseudomonas aeruginosa.

Compound | Minimum inhibitory concentration (MIC) (Proteus vulgaris GN76) | Minimum inhibitory concentration (MIC) (Proteus rettgeri GN624) | Minimum inhibitory concentration (MIC) (Proteus mirabilis GN79) | Minimum inhibitory concentration (MIC) [1] | Minimum inhibitory concentration (MIC) [2] | Minimum inhibitory concentration (MIC) [3] | Minimum inhibitory concentration (MIC) [4] | Minimum inhibitory concentration (MIC) [5] | Minimum inhibitory concentration (MIC) [6] | Minimum inhibitory concentration (MIC) (Escherichia coli GN206) | Minimum inhibitory concentration (MIC) [7] | Minimum inhibitory concentration (MIC) [8] | Minimum inhibitory concentration (MIC) [9] | Minimum inhibitory concentration (MIC) [10] | Minimum inhibitory concentration (MIC) [11] | Minimum inhibitory concentration (MIC) [12] | effective against Pseudomonas aeruginosa (Pseudomonas aeruginosa) | other results
CO[C@@]1(NC(=O)C(C(=O)O)c2ccc(O)cc2)C(=O)N2C(C(=O)O)=C(CSc3nnnn3C)CO[C@@H]21 (some centres unmarked) [Latamoxef, reference compound] | 0.20 | 0.05 | 0.10 | 0.10 | 100 | 0.05 | 3.13 | 100 | 100 | 0.39 | 6.25 | 6.25 | 3.13 | 12.5 | 0.10 | 25 | – | –
C[C@@H]1O[C@@H]2[C@H](NC(=O)C(NC=O)c3csc(N)n3)C(=O)N2C(C(=O)O)=C1CSc1nc(=O)c(O)nn1C (stereo partly drawn) [Compound No. 6, (6R,7R)-7-[2-(2-aminothiazol-4-yl)-2-(form-amido)acetamido]-(2S)-2-methyl-3-(2,5-dihydro-6-hydroxy-2-methyl-5-oxo-1,2,4-triazin-3-yl) thiomethyl-l-oxa-l-dethia-ceph-3-em-4-carboxylic acid] | 50 | 0.10 | 0.10 | 0.10 | 50 | 0.025 | 0.78 | 6.24 | 100 | 1.56 | 100 | 100 | 1.56 | 50 | 0.20 | 12.5 | – | effective against Streptococcus faecalis (Streptococcus faecalis): effective
CCN1CCN(C(=O)NC(C(=O)N[C@@H]2C(=O)N3C(C(=O)O)=C(CSc4nc(=O)c(O)nn4C)CO[C@H]23)c2csc(N)n2)C(=O)C1=O (single isomer, unassigned) [Compound No. 7] | 0.025 | 0.39 | 50 | 0.10 | 25 | 0.10 | 0.78 | 12.5 | 100 | 1.56 | 12.5 | 25 | 1.56 | 12.5 | 0.20 | 0.78 | effective | concentration at 0.5 h ([13]; 1/2 hour): 32000 ng/mL; concentration at 0.25 h ([13]; 1/4 hour): 34000 ng/mL; concentration at 5 min ([13]; 1/12 hour): 25000 ng/mL; concentration at 1 h ([13]; 1 hour): 13000 ng/mL
CO/N=C(\C(=O)N[C@@H]1C(=O)N2C(C(=O)O)=C(CSc3nc(=O)c(=O)[nH]n3C)CS[C@H]12)c1csc(N)n1 [Ceftriaxone, reference compound] | 0.025 | 0.39 | 0.025 | 0.10 | 100 | 0.05 | 1.56 | 1.56 | 100 | 0.78 | 50 | 100 | 3.13 | 12.5 | 0.10 | 3.13 | – | –
CCO/N=C(\C(=O)N[C@@H]1C(=O)N2C(C(=O)O)=C(CSc3nc(=O)c(O)nn3C)CO[C@H]12)c1csc(N)n1 [Compound No. 4, (6R,7R)-7-[(Z)-2-(2-aminothiazol-4-yl)-2-(ethoxyimino)acetamido]-3-(2,5-dihydro-6-hydroxy-2-methyl-5-oxo-l,2,4-triazin-3-yl) thiomethyl-l-oxa-l-dethia-ceph-3-em-4-carboxylic acid] | 0.05 | 0.39 | 0.025 | 0.10 | – | 0.10 | 0.78 | 0.20 | 100 | 1.56 | 6.25 | 25 | 1.56 | – | – | 25 | effective | –
Cn1nc(O)c(=O)nc1SCC1=C(C(=O)O)N2C(=O)[C@@H](NC(=O)C(NC=O)c3csc(N)n3)[C@H]2OC1 (stereo partly drawn) [Compound No. 8, (6R,7R)-7-[2-(2-aminothiazol-4-yl)-2-(form-amido)acetamido]-3-(2,5-dihydro-6-hydroxy-2-methyl-5-oxo-1,2,4-triazin-3-yl)thiomethyl-l-oxa-l-dethia-ceph-3-em-4-carboxylic acid] | 100 | 0.10 | 0.10 | 0.05 | 50 | 0.025 | 1.56 | 6.24 | 100 | 1.56 | 100 | 100 | 1.56 | 100 | 0.20 | 25 | – | –
CCO/N=C(\C(=O)N[C@@H]1C(=O)N2C(C(=O)O)=C(CSc3nc(=O)c(O)nn3C)[C@H](C)O[C@H]12)c1csc(N)n1 [Compound No. 2, (6R,7R)-7-[(z)-2-(2-aminothiazol-4-yl)-2-(ethoxyimino)acetamido]-(2S)-2-methyl-3-(2,5-dihydro-6-hydroxy-2-methyl-5-oxo-1,2,4-triazin-3-yl)thiomethyl-l-oxa-l-dethia-ceph-3-em-4-carboxylic acid] | 0.20 | 0.78 | 0.20 | 0.39 | 6.25 | 0.39 | 1.56 | 0.20 | 50 | 0.78 | 12.5 | 25 | 1.56 | 6.25 | 0.39 | 1.56 | effective | effective against Streptococcus faecalis (Streptococcus faecalis): effective
CO/N=C(\C(=O)N[C@@H]1C(=O)N2C(C(=O)O)=C(CSc3nc(=O)c(O)nn3C)CO[C@H]12)c1csc(N)n1 [Compound No. 3, (6R,7R)-7-[(Z)-2-(2-aminothiazol-4-yl)-2-(methoxyimino)acetamido]-3-(2,5-dihydro-6-hydroxy-2-methyl-5-oxo-1,2,4-triazin-3-yl) thiomethyl-l-oxa-l-dethia-ceph-3-em-4-carboxylic acid] | 0.10 | 0.39 | 0.05 | 0.10 | 50 | 0.05 | 0.78 | 0.39 | 50 | 3.13 | 25 | 50 | 0.78 | 12.5 | 0.39 | 12.5 | – | –

Reference: patent EP0188781A1, “1-Oxa-1-dethia-cephalosporin compounds and antibacterial agent comprising the same” (Merck & Co., Inc., priority 1984, dated 1986)
